The text below walks through data of publication PMC9873984, “Membrane cholesterol regulates inhibition and substrate transport by the glycine transporter, GlyT2” (Life Science Alliance, 2023).

This test has as its system Xenopus laevis oocytes. Nature of the test: Quantification of cholesterol content of oocytes (Amplex Red). The following applies: 15 mM for 30 min at 32°C; normalized to control oocytes. Type of test: cell-based. How it is done: The cell was then unclamped and removed from the electrophysiology rig and placed in an incubator at 32°C in a solution containing 15 mM MβCD for 30 min. The oocyte was then replaced in the electrophysiology rig and washed for 10 min in recording buffer, the voltage clamp was re-established, and the glycine transport currents were remeasured. […] Under these conditions, MβCD caused a 44% reduction in membrane cholesterol content, which is consistent with previous studies in oocytes (Fig 4) ([Santiago et al, 2001]; [Sadler & Jacobs, 2004]).
Figure 4. Cholesterol levels of control and MβCD-treated Xenopus laevis oocytes. Groups of six oocytes were incubated in 0 mM (control) or 15 mM MβCD for 30 min at 32°C. After incubation, oocytes were lysed in 1% Triton X-100 by vortexing and manually disrupting the membranes with forceps. Cell lysates were centrifuged, and the cholesterol content of the supernatant was quantified using the Amplex Red method. […]
Control and MβCD-treated oocytes were lysed in 1% Triton X-100 (Sigma-Aldrich) by vortexing and manually disrupting the membranes with forceps. […] The supernatant was then treated in accordance with the manufacturer’s protocol for the Amplex Red Cholesterol Assay Kit (Thermo Fisher Scientific) to quantify differences in cholesterol content.

On to methyl-β-cyclodextrin [MβCD], for which the “Reduction in membrane cholesterol content” value was found to be 44%.
